This is an account of results in patent US9783527B2, “Indazole ureas and method of use” (AbbVie Inc., priority 2014, dated 2017).

Assay [1] deals with MIA-induced osteoarthritic pain in rats. In words: Osteoarthritic (OA) pain induced by sodium monoiodoacetate (MIA), hind limb grip force. The format is in vivo, rat. Particulars: male Sprague Dawley rats, grip force 20 days after MIA injection. On the procedure: Osteoarthritic (OA) Pain Induced by Sodium Monoiodoacetate (MIA)
Pain behavior was assessed by measurement of hind limb grip force (GF) in adult osteoarthritic rats. Male Sprague Dawley rats, obtained from Charles River Laboratories, (Wilmington, Mass.), weighing 150-175 g, were injected in the unilateral knee join with a single intra-articular injection of sodium monoiodoacetate (MIA, 3 mg/rat). All rats were tested at 20 days following MIA injection. A behavioral measure of activity-induced pain was carried out. Measurements of the peak hind limb grip force were conducted by recording the maximum compressive force (CFmax), in grams of force, exerted on a hind limb strain gauge setup, in a commercially available grip force measurement system (Columbus Instruments, Columbus, Ohio).
During testing, each rat was gently restrained by grasping it around its rib cage and then allowed to grasp the wire mesh frame attached to the strain gauge. The experimenter then moved the animal in a rostral-to-caudal direction until the grip was broken. Each rat was sequentially tested twice at an approximately 2-3 minute interval to obtain a raw mean grip force (CFmax). This raw mean grip force data was in turn converted to a maximum hindlimb cumulative compressive force (CFmax), as the grams of force/kg of body weight, for each animal.
For evaluating the compound effects, the hind limb grip force was conducted 20 days following the intra-articular injection of MIA. A group of age-matched nave (not injected with MIA) animals was added as a comparator to the drug-dosed groups. The vehicle control response for each group of MIA-treated animals was defined as the 0% response (0% effect), whereas the nave control group was defined as the normal response and as 100% effect. The % effect for each dose group was expressed as % return of response to normalcy, compared to the nave group. A percent maximal possible effect (% MPE) of testing compound was calculated according to the formula: (Treatment CFmax−Vehicle CFmax)/Vehicle CFmax]×100). Higher % effect numbers indicate increased relief from the pain in the model, with 100% indicating a return to the level of response seen in normal (non-osteoarthritic) animals. All experiments evaluating drug effects in this model were conducted in a randomized blinded fashion.
The animals were housed in Association for Assessment and Accreditation of Laboratory Animal Care (AAALAC) approved facilities at AbbVie Inc. in a temperature-regulated environment under a controlled 12-hour light-dark cycle, with lights on at 6:00 a.m. Food and water were available ad libitum at all times except during testing. All testing was done following procedures outlined in protocols approved by AbbVie Inc.'s Institutional Animal Care and Use Committee.

For another assay, the target named is human Nav1.7 (Homo sapiens (Human), UniProt Q15858). In words: FRET-based membrane potential assay, recombinant human sodium channel Nav1.7. In kind it is cell-based. Conditions: HEK293 cells stably expressing recombinant human Nav1.7; depolarization with veratridine (EC80) + scorpion venom. In outline: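 IC50 derived by four-parameter Hill fit of percent inhibition of depolarization, measured as peak F440-480/F565-625 ratio over baseline. Stable human Nav1.7 HEK293 cells, dye-loaded with CC2-DMPE and DiSBAC2(3)/VABSC-1 at room temperature, received compound 3 min ahead of veratridine (EC80) plus scorpion venom.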
Sequence of human Nav1.7 (Q15858 whole entry): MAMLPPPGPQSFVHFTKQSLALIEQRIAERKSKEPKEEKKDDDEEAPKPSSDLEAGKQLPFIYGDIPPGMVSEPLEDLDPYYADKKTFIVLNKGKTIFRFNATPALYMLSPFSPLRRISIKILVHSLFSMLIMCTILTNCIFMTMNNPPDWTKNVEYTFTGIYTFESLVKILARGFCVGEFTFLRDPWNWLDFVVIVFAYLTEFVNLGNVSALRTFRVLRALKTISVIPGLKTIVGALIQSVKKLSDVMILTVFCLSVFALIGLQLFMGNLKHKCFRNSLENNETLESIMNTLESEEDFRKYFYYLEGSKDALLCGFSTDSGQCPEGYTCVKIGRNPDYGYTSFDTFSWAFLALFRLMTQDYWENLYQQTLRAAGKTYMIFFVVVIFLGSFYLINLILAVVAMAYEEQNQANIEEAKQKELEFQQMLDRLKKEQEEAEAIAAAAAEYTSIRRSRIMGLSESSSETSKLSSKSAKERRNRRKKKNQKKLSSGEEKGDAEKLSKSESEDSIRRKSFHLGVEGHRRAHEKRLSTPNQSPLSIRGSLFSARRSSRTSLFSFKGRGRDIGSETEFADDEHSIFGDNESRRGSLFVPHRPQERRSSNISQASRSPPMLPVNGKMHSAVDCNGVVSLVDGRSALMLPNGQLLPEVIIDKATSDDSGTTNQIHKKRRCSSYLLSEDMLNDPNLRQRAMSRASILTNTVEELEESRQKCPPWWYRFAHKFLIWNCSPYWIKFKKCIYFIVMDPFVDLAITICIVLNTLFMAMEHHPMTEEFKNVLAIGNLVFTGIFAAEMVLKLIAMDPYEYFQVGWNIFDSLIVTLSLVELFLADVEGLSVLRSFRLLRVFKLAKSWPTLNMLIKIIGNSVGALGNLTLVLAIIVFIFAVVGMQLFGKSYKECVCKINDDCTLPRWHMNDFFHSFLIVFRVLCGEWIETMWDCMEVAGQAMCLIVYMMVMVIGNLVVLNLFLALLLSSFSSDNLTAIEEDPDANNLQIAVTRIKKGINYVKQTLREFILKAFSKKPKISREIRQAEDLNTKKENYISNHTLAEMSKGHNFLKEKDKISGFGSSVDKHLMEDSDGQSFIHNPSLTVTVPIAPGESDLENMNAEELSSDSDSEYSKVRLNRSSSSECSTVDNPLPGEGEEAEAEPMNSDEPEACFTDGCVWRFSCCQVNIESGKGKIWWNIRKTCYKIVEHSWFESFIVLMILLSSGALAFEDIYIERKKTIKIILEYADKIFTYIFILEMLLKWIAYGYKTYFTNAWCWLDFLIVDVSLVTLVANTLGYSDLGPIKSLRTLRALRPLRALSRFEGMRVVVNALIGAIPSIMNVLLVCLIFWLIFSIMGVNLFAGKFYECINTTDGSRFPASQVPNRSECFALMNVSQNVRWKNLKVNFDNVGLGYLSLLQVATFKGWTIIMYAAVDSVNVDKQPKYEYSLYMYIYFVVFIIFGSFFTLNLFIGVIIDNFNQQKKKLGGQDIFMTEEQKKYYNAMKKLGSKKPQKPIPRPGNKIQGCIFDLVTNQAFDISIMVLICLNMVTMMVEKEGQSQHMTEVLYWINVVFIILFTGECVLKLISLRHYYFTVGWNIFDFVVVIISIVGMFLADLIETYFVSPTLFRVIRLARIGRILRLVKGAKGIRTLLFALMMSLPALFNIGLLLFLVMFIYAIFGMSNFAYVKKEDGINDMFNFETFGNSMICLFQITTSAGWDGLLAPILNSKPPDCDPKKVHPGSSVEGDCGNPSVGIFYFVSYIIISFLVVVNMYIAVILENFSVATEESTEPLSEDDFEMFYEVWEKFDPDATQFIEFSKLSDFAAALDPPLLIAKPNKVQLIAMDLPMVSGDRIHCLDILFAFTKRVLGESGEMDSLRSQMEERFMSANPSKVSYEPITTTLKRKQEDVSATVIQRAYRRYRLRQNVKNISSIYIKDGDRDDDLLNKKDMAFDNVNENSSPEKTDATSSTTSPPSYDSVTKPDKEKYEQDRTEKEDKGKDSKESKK

In a further assay the target is human Nav1.8 (Homo sapiens (Human), UniProt Q9Y5Y9). Description: FRET-based membrane potential assay, recombinant human sodium channel Nav1.8. Particulars: HEK293 cells stably expressing recombinant human Nav1.8; depolarization with veratridine (EC80) + scorpion venom. In kind it is cell-based. Summed up: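 HEK293 cells stably expressing Nav1.8 were loaded with CC2-DMPE/DiSBAC2(3) FRET voltage dyes. Compounds were added 3 min before depolarization with EC80 veratridine plus scorpion venom. The F440-480/F565-625 ratio was read on FLIPR; IC50 came from four-parameter Hill fits.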
Sequence of human Nav1.8 (Q9Y5Y9 whole entry): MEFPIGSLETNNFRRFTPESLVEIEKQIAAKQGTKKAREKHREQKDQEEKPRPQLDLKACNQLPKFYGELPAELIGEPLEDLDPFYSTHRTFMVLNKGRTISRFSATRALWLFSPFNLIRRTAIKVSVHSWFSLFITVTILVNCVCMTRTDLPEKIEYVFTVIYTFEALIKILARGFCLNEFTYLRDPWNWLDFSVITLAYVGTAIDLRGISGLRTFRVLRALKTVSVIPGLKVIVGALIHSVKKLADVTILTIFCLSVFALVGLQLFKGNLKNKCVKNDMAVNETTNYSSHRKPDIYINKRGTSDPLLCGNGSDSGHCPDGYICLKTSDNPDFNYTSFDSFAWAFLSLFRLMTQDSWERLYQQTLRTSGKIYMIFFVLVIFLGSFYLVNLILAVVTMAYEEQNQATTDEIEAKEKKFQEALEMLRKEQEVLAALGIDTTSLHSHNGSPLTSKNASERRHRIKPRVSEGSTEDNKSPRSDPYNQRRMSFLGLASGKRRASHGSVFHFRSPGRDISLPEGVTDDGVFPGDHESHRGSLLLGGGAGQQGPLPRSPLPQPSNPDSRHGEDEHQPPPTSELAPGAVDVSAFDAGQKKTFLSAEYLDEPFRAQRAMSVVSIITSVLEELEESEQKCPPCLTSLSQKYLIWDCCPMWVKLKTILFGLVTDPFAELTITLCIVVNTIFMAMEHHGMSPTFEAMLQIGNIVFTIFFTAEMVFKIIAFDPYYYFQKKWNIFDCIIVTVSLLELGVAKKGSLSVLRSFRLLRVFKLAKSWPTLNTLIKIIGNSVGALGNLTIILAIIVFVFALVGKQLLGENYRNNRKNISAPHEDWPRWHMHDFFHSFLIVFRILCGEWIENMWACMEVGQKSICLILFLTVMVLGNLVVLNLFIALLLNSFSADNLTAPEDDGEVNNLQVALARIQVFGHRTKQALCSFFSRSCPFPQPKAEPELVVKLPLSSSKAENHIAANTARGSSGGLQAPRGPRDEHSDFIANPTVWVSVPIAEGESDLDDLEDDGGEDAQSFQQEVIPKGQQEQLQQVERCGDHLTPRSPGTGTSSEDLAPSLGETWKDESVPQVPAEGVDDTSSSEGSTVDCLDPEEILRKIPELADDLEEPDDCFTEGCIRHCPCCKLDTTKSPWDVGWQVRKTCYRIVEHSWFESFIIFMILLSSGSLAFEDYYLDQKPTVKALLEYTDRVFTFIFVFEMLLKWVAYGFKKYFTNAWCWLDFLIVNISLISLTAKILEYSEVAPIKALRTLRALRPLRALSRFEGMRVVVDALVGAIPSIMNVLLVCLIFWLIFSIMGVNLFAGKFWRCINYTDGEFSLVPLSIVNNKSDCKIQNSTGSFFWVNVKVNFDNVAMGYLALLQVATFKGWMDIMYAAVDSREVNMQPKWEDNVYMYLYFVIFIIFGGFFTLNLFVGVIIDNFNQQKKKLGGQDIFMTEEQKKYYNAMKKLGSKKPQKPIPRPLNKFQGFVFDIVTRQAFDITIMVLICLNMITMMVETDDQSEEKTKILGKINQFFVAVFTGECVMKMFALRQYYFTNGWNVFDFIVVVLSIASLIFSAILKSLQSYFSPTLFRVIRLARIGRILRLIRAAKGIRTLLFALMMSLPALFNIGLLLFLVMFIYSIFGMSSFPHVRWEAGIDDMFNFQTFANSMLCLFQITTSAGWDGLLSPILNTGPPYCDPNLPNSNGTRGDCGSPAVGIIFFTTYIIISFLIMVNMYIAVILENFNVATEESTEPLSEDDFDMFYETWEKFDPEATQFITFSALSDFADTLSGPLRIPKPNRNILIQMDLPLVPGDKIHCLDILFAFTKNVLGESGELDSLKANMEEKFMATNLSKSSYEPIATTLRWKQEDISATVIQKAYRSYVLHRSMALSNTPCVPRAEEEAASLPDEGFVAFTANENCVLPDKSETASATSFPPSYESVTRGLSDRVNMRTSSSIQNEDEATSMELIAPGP

For `O=C(CN1CCN(c2cccc3c2cnn3-c2ccccc2F)C1=O)NC1CC1` [Example 13, N-cyclopropyl-2-{3-[1-(2-fluorophenyl)-1H-indazol-4-yl]-2-oxoimidazolidin-1-yl}acetamide], the “OA MPE (%)” value in assay [1] (OA dose 30 mg/kg) is 47%.
Broadly, the IC50 is the point on the concentration scale where inhibition reaches its midpoint. Consider `O=C1N(Cc2nc(C(F)(F)F)cs2)CCN1c1cccc2c1cnn2-c1ccccc1F` [Example 14, 1-[1-(2-fluorophenyl)-1H-indazol-4-yl]-3-{[4-(trifluoromethyl)-1,3-thiazol-2-yl]methyl}imidazolidin-2-one], for which the “OA MPE (%)” value in assay [1] (OA dose 30 mg/kg) came to 60%. The IC50 at human Nav1.7 is 0.618 µM.
For `O=C1N(CC(=O)N2C[C@@H]3C[C@H]2CO3)CCN1c1cccc2c1cnn2-c1ccccc1F` [Example 16, 1-[1-(2-fluorophenyl)-1H-indazol-4-yl]-3-{2-[(1S,4S)-2-oxa-5-azabicyclo[2.2.1]hept-5-yl]-2-oxoethyl}imidazolidin-2-one], the “OA MPE (%)” value in assay [1] (OA dose 30 mg/kg) came out at 67%. The IC50 on human Nav1.7 stood at 0.738 µM.
Turning to `O=C(CN1CCN(c2cccc3c2cnn3-c2ccccc2F)C1=O)N1CCCC(F)C1` (centres unmarked) [Example 17, 1-[1-(2-fluorophenyl)-1H-indazol-4-yl]-3-[2-(3-fluoropiperidin-1-yl)-2-oxoethyl]imidazolidin-2-one], in assay [1] (OA dose 30 mg/kg), the “OA MPE (%)” value came to 91%.
For `O=C1N(CC(=O)N2C[C@@H](F)C[C@@H]2c2cc(F)ccc2F)CCN1c1cccc2c1cnn2-c1ccccc1F` [Example 18, 1-{2-[(2R,4S)-2-(2,5-difluorophenyl)-4-fluoropyrrolidin-1-yl]-2-oxoethyl}-3-[1-(2-fluorophenyl)-1H-indazol-4-yl]imidazolidin-2-one], the “OA MPE (%)” value in assay [1] (OA dose 10 mg/kg) amounted to 65%. At human Nav1.7, the IC50 is 0.578 µM.
On the same counts, the results for `O=C1N(c2cccnc2)CCN1c1cccc2c1cnn2-c1ccccc1F` [Example 19, 1-[1-(2-fluorophenyl)-1H-indazol-4-yl]-3-(pyridin-3-yl)imidazolidin-2-one] are 67% and 2.92 µM.
`O=C1N(c2ccncc2)CCN1c1cccc2c1cnn2-c1ccccc1F` [Example 20, 1-[1-(2-fluorophenyl)-1H-indazol-4-yl]-3-(pyridin-4-yl)imidazolidin-2-one]: in assay [1] (OA dose 10 mg/kg), the “OA MPE (%)” value was 91%.
`CC(C)(C)C(O)CN1CCN(c2cccc3c2cnn3-c2ccccc2F)C1=O` (centres unmarked) [Example 22, 1-[1-(2-fluorophenyl)-1H-indazol-4-yl]-3-(2-hydroxy-3,3-dimethylbutyl)imidazolidin-2-one]: the “OA MPE (%)” value in assay [1] (OA dose 30 mg/kg) was found to be 38%. Moreover, the IC50 on human Nav1.7 came to 3 µM.
Taken in the same sequence, the figures for `O=C(CN1CCCN(c2cccc3c2cnn3-c2ccccc2F)C1=O)N1CC[C@H](F)C1` [Example 23, 1-[1-(2-fluorophenyl)-1H-indazol-4-yl]-3-{2-[(3S)-3-fluoropyrrolidin-1-yl]-2-oxoethyl}tetrahydropyrimidin-2(1H)-one] were 45% and 1.47 µM.
Turning to `Cc1csc(CN2CCN(c3cccc4c3cnn4-c3ccccc3F)C2=O)n1` [Example 24, 1-[1-(2-fluorophenyl)-1H-indazol-4-yl]-3-[(4-methyl-1,3-thiazol-2-yl)methyl]imidazolidin-2-one], the “OA MPE (%)” value in assay [1] (OA dose 10 mg/kg) is recorded as 62%. For the same compound, the IC50 on human Nav1.7 stood at 0.338 µM.
Taken in the same sequence, the figures for `O=C1N(c2ncccn2)CCN1c1cccc2c1cnn2-c1ccccc1F` [Example 28, 1-[1-(2-fluorophenyl)-1H-indazol-4-yl]-3-(pyrimidin-2-yl)imidazolidin-2-one] were 62% and 0.457 µM.
On the same counts, the results for `O=C1N(Cc2nnco2)CCN1c1cccc2c1cnn2-c1ccccc1F` [Example 29, 1-[1-(2-fluorophenyl)-1H-indazol-4-yl]-3-(1,3,4-oxadiazol-2-ylmethyl)imidazolidin-2-one] are 46% and 2.19 µM.
For `Cc1cncc(CN2CCN(c3cccc4c3cnn4-c3ccccc3F)C2=O)n1` [Example 42, 1-[1-(2-fluorophenyl)-1H-indazol-4-yl]-3-[(6-methylpyrazin-2-yl)methyl]imidazolidin-2-one], the “OA MPE (%)” value in assay [1] (OA dose 10 mg/kg) turned out to be 35%.
For `O=C(CN1CCN(c2cccc3c2cnn3-c2ccccc2F)C1=O)N1CCC[C@H](F)C1` [Example 54, 1-[1-(2-fluorophenyl)-1H-indazol-4-yl]-3-{2-[(3S)-3-fluoropiperidin-1-yl]-2-oxoethyl}imidazolidin-2-one], the “OA MPE (%)” value in assay [1] (OA dose 30 mg/kg) worked out at 57%.
For the compound `O=C(CN1CCN(c2cccc3c2cnn3-c2ccccc2F)C1=O)NC1CCCC1(F)F` (centres unmarked) [Example 347, N-(2,2-difluorocyclopentyl)-2-{3-[1-(2-fluorophenyl)-1H-indazol-4-yl]-2-oxoimidazolidin-1-yl}acetamide], the 50% inhibitory concentration (IC50) on human Nav1.7 is 3.45 µM; on human Nav1.8, 1.29 µM.
For the compound `O=C(CN1CCN(c2cccc3c2cnn3-c2cc(Cl)cc(Cl)c2)C1=O)N1CC[C@H](F)C1` [Example 348, 1-[1-(3,5-dichlorophenyl)-1H-indazol-4-yl]-3-{2-[(3S)-3-fluoropyrrolidin-1-yl]-2-oxoethyl}imidazolidin-2-one], the IC50 is 13.4 µM at human Nav1.7 and 3.26 µM on human Nav1.8.
Taken in the same sequence, the figures for `O=C1CC(NC(=O)CN2CCN(c3cccc4c3cnn4-c3ccccc3F)C2=O)C1` [Example 349, 2-{3-[1-(2-fluorophenyl)-1H-indazol-4-yl]-2-oxoimidazolidin-1-yl}-N-(3-oxocyclobutyl)acetamide] were 15.1 µM and 7.57 µM.
On the same counts, the results for `O=C(CN1CCN(c2cccc3c2cnn3-c2ccccc2F)C1=O)NC1CC(O)C1` (centres unmarked) [Example 350, 2-{3-[1-(2-fluorophenyl)-1H-indazol-4-yl]-2-oxoimidazolidin-1-yl}-N-(3-hydroxycyclobutyl)acetamide] are 9.22 µM and 12.3 µM.
For `CN(C(=O)CN1CCN(c2cccc3c2cnn3-c2ccccc2F)C1=O)C1CCC1` [Example 351, N-cyclobutyl-2-{3-[1-(2-fluorophenyl)-1H-indazol-4-yl]-2-oxoimidazolidin-1-yl}-N-methylacetamide], the IC50 on human Nav1.7 was 3.48 µM; on human Nav1.8, 1.85 µM.
On the same counts, the results for `CC1CN(C(=O)CN2CCN(c3cccc4c3cnn4-c3ccccc3F)C2=O)C1` [Example 352, 1-[1-(2-fluorophenyl)-1H-indazol-4-yl]-3-[2-(3-methylazetidin-1-yl)-2-oxoethyl]imidazolidin-2-one] are 1.51 µM and 2.58 µM.
Taken in the same sequence, the figures for `O=C(CN1CCN(c2cccc3c2cnn3-c2ccccc2F)C1=O)NC1(C(F)(F)F)CCC1` [Example 353, 2-{3-[1-(2-fluorophenyl)-1H-indazol-4-yl]-2-oxoimidazolidin-1-yl}-N-[1-(trifluoromethyl)cyclobutyl]acetamide] were 3.31 µM and 1.69 µM.
Take `O=C(CN1CCN(c2cccc3c2cnn3-c2ccccc2F)C1=O)NC1CC(=NO)C1` (centres unmarked) [Example 354, 2-{3-[1-(2-fluorophenyl)-1H-indazol-4-yl]-2-oxoimidazolidin-1-yl}-N-[3-(hydroxyimino)cyclobutyl]acetamide]: the IC50 at human Nav1.7 came out at 6.5 µM; at human Nav1.8, 16.6 µM.
Taken in the same sequence, the figures for `CON=C1CC(NC(=O)CN2CCN(c3cccc4c3cnn4-c3ccccc3F)C2=O)C1` (centres unmarked) [Example 355, 2-{3-[1-(2-fluorophenyl)-1H-indazol-4-yl]-2-oxoimidazolidin-1-yl}-N-[3-(methoxyimino)cyclobutyl]acetamide] were 9.23 µM and 4.05 µM.
